For the assay, the system named is B6C3F1 mice, B16 melanoma ip, median survival T/C. The assay is described as follows: NCI In Vivo Anticancer Drug Screen. Data for tumor model B16 Melanoma (intraperitoneal) in B6C3F1 mice. The following applies: endpoint: median survival time, higher = longer survival. Put shortly: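 Tumor-bearing mice received test compound; a separate group got vehicle only. Survival was then compared, with results reported as treated over control.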

[1] abbreviates: dose: 12.5 mg/kg/injection, schedule: Q01DX009 (ip), vehicle: saline with Tween-80.
The mark [2] stands for this setting: dose: 25.0 mg/kg/injection, schedule: Q01DX009 (ip), vehicle: saline with Tween-80.
Setting [3] is: dose: 50.0 mg/kg/injection, schedule: Q01DX009 (ip), vehicle: saline with Tween-80.
Setting [4] is: dose: 100.0 mg/kg/injection, schedule: Q01DX009 (ip), vehicle: saline with Tween-80.
[5] abbreviates: dose: 200.0 mg/kg/injection, schedule: Q01DX009 (ip), vehicle: saline with Tween-80.
[6] abbreviates: dose: 32.0 mg/kg/injection, schedule: Q01DX009 (ip), vehicle: Klucel (hydroxypropylcellulose) (HPC).
Where [7] appears, read: dose: 6.25 mg/kg/injection, schedule: Q01DX009 (ip), vehicle: saline with Tween-80.
[8] abbreviates: dose: 25.0 mg/kg/injection, schedule: Q01DX009 (ip), vehicle: Klucel (hydroxypropylcellulose) (HPC).
Setting [9] is: dose: 3.13 mg/kg/injection, schedule: Q01DX009 (ip), vehicle: saline with Tween-80.
[10] abbreviates: dose: 12.5 mg/kg/injection, schedule: Q01DX009 (ip), vehicle: saline.
Where [11] appears, read: dose: 25.0 mg/kg/injection, schedule: Q01DX009 (ip), vehicle: saline.

“And” between values parts separate entries of the source, which are not always exact repeats. Identical values can stand only once. Inconclusive results and toxic doses are left out.

For the molecule `NCCCN=c1ccc2c3c1c(O)c1c(O)ccc(=O)c1c3[nH]n2CCNCCO`, the T/C (dose: 2.0 mg/kg/injection, schedule: Q01DX009 (ip), vehicle: water) was 188 % of control; the T/C (dose: 4.0 mg/kg/injection, schedule: Q01DX009 (ip), vehicle: water) is 263 % of control; the T/C (dose: 8.0 mg/kg/injection, schedule: Q01DX009 (ip), vehicle: water) is 165 % of control.
With `CC(C#N)(C#N)N=Nc1ccc(Cl)cc1Cl`, the T/C by setting is: under setting [1], 98 % of control; under setting [2], 95 % of control; under setting [3], 95 % of control; under setting [4], 95 % of control; under setting [5], 110 % of control; (dose: 400.0 mg/kg/injection, schedule: Q01DX009 (ip), vehicle: saline with Tween-80) 89 % of control.
`O=NN(CCCl)C(=O)NC1CCCCC1`: the T/C (dose: 3.12 mg/kg/injection, schedule: Q01DX001 (ip), vehicle: carboxymethylcellulose (CMC)) is 103 % of control; the T/C (dose: 3.12 mg/kg/injection, schedule: Q01DX005 (ip), vehicle: carboxymethylcellulose (CMC)) was 103 % of control; the T/C (dose: 6.25 mg/kg/injection, schedule: Q01DX001 (ip), vehicle: carboxymethylcellulose (CMC)) is 99 % of control; the T/C (dose: 6.25 mg/kg/injection, schedule: Q01DX005 (ip), vehicle: carboxymethylcellulose (CMC)) was 112 % of control; the T/C (dose: 12.5 mg/kg/injection, schedule: Q01DX001 (ip), vehicle: carboxymethylcellulose (CMC)) was 98 % of control; the T/C (dose: 12.5 mg/kg/injection, schedule: Q01DX005 (ip), vehicle: carboxymethylcellulose (CMC)) was 114 % of control. Further, the T/C was 86 % of control under setting [6]; 177 % of control (dose: 50.0 mg/kg/injection, schedule: Q01DX001 (ip), vehicle: carboxymethylcellulose (CMC)); 172 % of control (dose: 50.0 mg/kg/injection, schedule: Q01DX005 (ip), vehicle: carboxymethylcellulose (CMC)); 204 % of control (dose: 100.0 mg/kg/injection, schedule: Q01DX001 (ip), vehicle: carboxymethylcellulose (CMC)); 107 % of control (dose: 100.0 mg/kg/injection, schedule: Q01DX005 (ip), vehicle: carboxymethylcellulose (CMC)).
On to `CCCCCCCCCCCCSC1=C(Cl)C(=O)C(OC)=C(OC)C1=O`, for which the T/C is, setting by setting: (dose: 3.12 mg/kg/injection, schedule: Q01DX009 (ip), vehicle: saline with Tween-80) 95 % of control and 102 % of control; under setting [7], 95 % of control and 103 % of control; under setting [1], 89 % of control and 94 % of control; under setting [2], 90 % of control and 100 % of control; under setting [3], 88 % of control and 101 % of control; under setting [4], 89 % of control.
Turning to `NC(CCCCNC=O)C(=O)O` (configuration not stated), the T/C is, setting by setting: (dose: 100.0 mg/kg/injection, schedule: Q01DX009 (ip), vehicle: saline) 110 % of control; (dose: 200.0 mg/kg/injection, schedule: Q01DX009 (ip), vehicle: saline) 121 % of control; (dose: 400.0 mg/kg/injection, schedule: Q01DX009 (ip), vehicle: saline) 116 % of control.
As for `CC(C)(C)SCC(NC(=O)OCC1c2ccccc2-c2ccccc21)C(=O)O` (configuration not stated), the T/C under setting [8] was 91 % of control; the T/C (dose: 50.0 mg/kg/injection, schedule: Q01DX009 (ip), vehicle: Klucel (hydroxypropylcellulose) (HPC)) is 97 % of control; the T/C (dose: 100.0 mg/kg/injection, schedule: Q01DX009 (ip), vehicle: Klucel (hydroxypropylcellulose) (HPC)) was 91 % of control and 92 % of control.
`[NH-]C(CCC(N)=O)C(=O)O.[NH-]C(CCC(N)=O)C(=O)O.[Zn+2]` (configuration not stated): the T/C runs as follows: under setting [7], 95 % of control; under setting [1], 93 % of control; under setting [2], 98 % of control; under setting [3], 90 % of control.
On to `O=C1CC(c2ccc(Cl)cc2Cl)Oc2ccc(Cl)cc21` (configuration not stated), for which the T/C is, setting by setting: under setting [9], 100 % of control; under setting [7], 93 % of control; under setting [1], 88 % of control; under setting [2], 100 % of control.
On to `OC(CCl)CN1CC[N+]2(CC1)CC[N+]1(CCN(CC(O)CCl)CC1)CC2` (configuration not stated), for which the T/C is 118 % of control (dose: 4.68 mg/kg/injection, schedule: Q01DX009 (ip), vehicle: saline); 106 % of control (dose: 9.37 mg/kg/injection, schedule: Q01DX009 (ip), vehicle: saline); 172 % of control under setting [10]; 98 % of control (dose: 18.75 mg/kg/injection, schedule: Q01DX009 (ip), vehicle: saline); 183 % of control under setting [11]; 106 % of control (dose: 37.5 mg/kg/injection, schedule: Q01DX009 (ip), vehicle: saline).
In the case of `O=C(C#Cc1ccccc1)c1ccccc1`, the T/C by setting is: (dose: 3.12 mg/kg/injection, schedule: Q01DX009 (ip), vehicle: Klucel (hydroxypropylcellulose) (HPC)) 100 % of control and 102 % of control; (dose: 6.25 mg/kg/injection, schedule: Q01DX009 (ip), vehicle: Klucel (hydroxypropylcellulose) (HPC)) 92 % of control and 102 % of control; (dose: 12.5 mg/kg/injection, schedule: Q01DX009 (ip), vehicle: Klucel (hydroxypropylcellulose) (HPC)) 97 % of control and 101 % of control; under setting [8], 90 % of control and 94 % of control.
As for `Nc1nc(-c2ccc([N+](=O)[O-])cc2)c(Br)c(=O)[nH]1`, the T/C was 98 % of control under setting [2], 107 % of control under setting [3], 107 % of control under setting [4] and 95 % of control under setting [5].
Take `CC(=S)NC(O)C(=O)c1ccccc1` (configuration not stated): the T/C runs as follows: (dose: 12.5 mg/kg/injection, schedule: Q01DX009 (ip), vehicle: distilled water + Tween-80) 104 % of control; under setting [1], 95 % of control; (dose: 25.0 mg/kg/injection, schedule: Q01DX009 (ip), vehicle: distilled water + Tween-80) 107 % of control; under setting [2], 94 % of control; (dose: 50.0 mg/kg/injection, schedule: Q01DX009 (ip), vehicle: distilled water + Tween-80) 98 % of control; under setting [3], 93 % of control. Further, the T/C reads like this: (dose: 100.0 mg/kg/injection, schedule: Q01DX009 (ip), vehicle: distilled water + Tween-80) 113 % of control; under setting [4], 93 % of control; under setting [5], 89 % of control.
In the case of `CC(C)C1C(=O)N2CCCC2C2(O)OC(NC(=O)C3C=C4c5cccc6[nH]cc(c56)CC4N(C)C3)(C(C)C)C(=O)N12` (configuration not stated), the T/C is, setting by setting: (dose: 8.0 mg/kg/injection, schedule: Q01DX009 (ip), vehicle: Klucel (hydroxypropylcellulose) (HPC)) 106 % of control; (dose: 16.0 mg/kg/injection, schedule: Q01DX009 (ip), vehicle: Klucel (hydroxypropylcellulose) (HPC)) 109 % of control; under setting [6], 117 % of control; (dose: 64.0 mg/kg/injection, schedule: Q01DX009 (ip), vehicle: Klucel (hydroxypropylcellulose) (HPC)) 105 % of control.
As for `CC1=C(CC/C(C)=C/CCC2=CCC(C3=CC(=O)OC3O)OC2O)C(C)(C)CCC1` (configuration not stated), the T/C is 90 % of control (dose: 3.0 mg/kg/injection, schedule: Q01DX009 (ip), vehicle: Klucel (hydroxypropylcellulose) (HPC)) and 90 % of control (dose: 6.0 mg/kg/injection, schedule: Q01DX009 (ip), vehicle: Klucel (hydroxypropylcellulose) (HPC)).
With `O=C1OCC2C(=O)OCC12` (configuration not stated), the T/C is, setting by setting: under setting [1], 99 % of control; under setting [2], 99 % of control; under setting [3], 102 % of control; under setting [4], 101 % of control; under setting [5], 106 % of control.
As for `CCN(CC)CCOC(=O)Cc1cccc2c(=O)cc(-c3ccccc3)oc12`, the T/C reads like this: under setting [10], 97 % of control and 103 % of control; under setting [11], 115 % of control and 101 % of control; (dose: 50.0 mg/kg/injection, schedule: Q01DX009 (ip), vehicle: saline) 109 % of control and 99 % of control.
Turning to `Cn1c(=O)c2c(nc(CCCCc3nc4c(c(=O)n(C)c(=O)n4C)n3C)n2C)n(C)c1=O`, the T/C is, setting by setting: (dose: 0.78 mg/kg/injection, schedule: Q01DX009 (ip), vehicle: saline with Tween-80) 91 % of control; (dose: 1.56 mg/kg/injection, schedule: Q01DX009 (ip), vehicle: saline with Tween-80) 109 % of control; under setting [9], 93 % of control; under setting [7], 93 % of control.
Regarding `C=C(C)C(=NC(C)(C)C)Nc1ccccc1`, the T/C was 98 % of control under setting [7]; 122 % of control under setting [1]; 109 % of control under setting [2]; 91 % of control under setting [3]; 96 % of control under setting [4]; 114 % of control under setting [5].
For `CCCCOCN(COCCCC)C12CC3CC(CC(C3)C1)C2`, the T/C was 108 % of control and 107 % of control under setting [1]; 104 % of control and 105 % of control under setting [2]; 109 % of control and 100 % of control under setting [3]; 104 % of control and 106 % of control under setting [4]; 105 % of control under setting [5].
